# Assay results: US20190022152A1, “MICROBIOME RESPONSE TO AGENTS” (Yeda Research and Development Co., Ltd., priority 2014, published 2019)
# Where two headings read alike, the source gives them in different places.
# How the values were obtained:
# fecal microbiota [1] = test system: fecal microbiota
# Procedure: Frozen fecal samples were processed for DNA isolation using the MoBio PowerSoil kit according to the manufacturer's instructions. 1 ng of the purified fecal DNA was used for PCR amplification and sequencing of the bacterial 16S rRNA gene. ˜365 bp Amplicons spanning the variable region 2 (V2) of the 16S rRNA gene were generated by using the following barcoded primers: Fwd 5′-[…]-3′ (SEQ ID NO: 3), Rev 5′-[…]-3′ (SEQ ID NO: 4). […] Reads were then processed using the QIIME (Quantitative Insights Into Microbial Ecology) analysis pipeline as described, version 1.8. Paired-end joined sequences were grouped into operational taxonomic units (OTUs) using the UCLUST algorithm and the greengenes database. Sequences with distance-based similarity of 97% or greater over median sequence length of 353 bp were assigned to the same OTU. Samples were grouped according to the treatment. Analysis was performed at each taxonomical level (Phylum-genus+OTU level) separately. For each taxon, G test was performed between the different groups. P-values were FDR corrected for multiple hypothesis testing.
# fecal microbiota [2] = conditions: for Fold change (week 11/week 0) in relative species abundance: fecal samples, 11 weeks consumption
# Procedure: Illumina sequence reads were mapped to the human microbiome reference genome database of the Human Microbiome Project [www(dot)hmpdacc(dot)org/HMREFG/^32], and to a gut microbial gene catalogue^33 using GEM mapper^58 with the following parameters: • -m 3 -s 0 -q offset-33 -gem-quality-threshold 26
# Microbial species abundance was measured as the fraction of reads that mapped to a single species in the database. An EM algorithm adapted from Pathoscope^59 was employed to determine the correct assignment of reads that mapped to more than one species. We considered only species for which at least 10% of the genome was covered (each coverage bin was 10,000-bp long) in at least one of the growth conditions (saccharin, water, or glucose). Reads mapped to the gut microbial gene catalogue were assigned a KEGG^34,35 ID according to the mapping available with the catalogue. Genes were subsequently mapped to KEGG pathways, and only pathways whose gene coverage was above 0.2 were included.
compound,measurement,setting,value
O=C1NS(=O)(=O)c2ccccc21 [saccharin],microbiota composition (dysbiosis),fecal microbiota [1]; mice consuming pure saccharin and HFD,dysbiosis was observed
same,operational taxonomic units (OTUs) significantly altered in abundance,"fecal microbiota [1]; saccharin-consuming mice vs all control groups, week 11, FDR corrected p<0.05 (FIG. 21: commercial saccharin)",> 40
same,changes in microbial relative species abundance,"fecal microbiota [2]; 11 weeks commercial saccharin vs glucose or water, F-test p<10^−10",largest changes
same,Fold change (week 11/week 0) in relative species abundance,"fecal microbiota [2]; Symbol BACT_9, Number 996",0.65
same,Fold change (week 11/week 0) in relative species abundance,"fecal microbiota [2]; Symbol BACT_22, Number 639",0.36
same,Fold change (week 11/week 0) in relative species abundance,"fecal microbiota [2]; Symbol BACT_38, Number 780",0.50
same,Fold change (week 11/week 0) in relative species abundance,"fecal microbiota [2]; Symbol BACT_49, Number 420",0.02
same,Fold change (week 11/week 0) in relative species abundance,"fecal microbiota [2]; Symbol BACT_60, Number 752",0.71
same,Fold change (week 11/week 0) in relative species abundance,"fecal microbiota [2]; Symbol BACT_65, Number 918",6.73
same,Fold change (week 11/week 0) in relative species abundance,"fecal microbiota [2]; Symbol BACT_70, Number 863",9.41
same,Fold change (week 11/week 0) in relative species abundance,"fecal microbiota [2]; Symbol BACT_85, Number 934",0.45
same,Fold change (week 11/week 0) in relative species abundance,"fecal microbiota [2]; Symbol BACT_142, Number 843",0.42
same,Fold change (week 11/week 0) in relative species abundance,"fecal microbiota [2]; Symbol BACT_170, Number 883",0.48
same,Fold change (week 11/week 0) in relative species abundance,"fecal microbiota [2]; Symbol BACT_171, Number 748",0.56
same,Fold change (week 11/week 0) in relative species abundance,"fecal microbiota [2]; Symbol BACT_172, Number 768",1.03
same,Fold change (week 11/week 0) in relative species abundance,"fecal microbiota [2]; Symbol BACT_178, Number 921",0.28
same,Fold change (week 11/week 0) in relative species abundance,"fecal microbiota [2]; Symbol BACT_181, Number 767",0.40
same,Fold change (week 11/week 0) in relative species abundance,"fecal microbiota [2]; Symbol BACT_185, Number 633",8.79
same,Fold change (week 11/week 0) in relative species abundance,"fecal microbiota [2]; Symbol BACT_189, Number 636",1.92
same,Fold change (week 11/week 0) in relative species abundance,"fecal microbiota [2]; Symbol BACT_192, Number 995",0.36
same,Fold change (week 11/week 0) in relative species abundance,"fecal microbiota [2]; Symbol BACT_194, Number 846",0.51
same,Fold change (week 11/week 0) in relative species abundance,"fecal microbiota [2]; Symbol BACT_195, Number 523",0.40
same,Fold change (week 11/week 0) in relative species abundance,"fecal microbiota [2]; Symbol BACT_196, Number 395",12.66
same,Fold change (week 11/week 0) in relative species abundance,"fecal microbiota [2]; Symbol BACT_225, Number 953",0.44
same,Fold change (week 11/week 0) in relative species abundance,"fecal microbiota [2]; Symbol BACT_258, Number 620",0.55
same,Fold change (week 11/week 0) in relative species abundance,"fecal microbiota [2]; Symbol BACT_260, Number 1443",0.55
same,Fold change (week 11/week 0) in relative species abundance,"fecal microbiota [2]; Symbol BACT_300, Number 769",0.50
same,Fold change (week 11/week 0) in relative species abundance,"fecal microbiota [2]; Symbol BACT_371, Number 960",2.13
same,Fold change (week 11/week 0) in relative species abundance,"fecal microbiota [2]; Symbol BACT_374, Number 805",0.34
same,Fold change (week 11/week 0) in relative species abundance,"fecal microbiota [2]; Symbol BACT_392, Number 915",0.66
same,Fold change (week 11/week 0) in relative species abundance,"fecal microbiota [2]; Symbol BACT_393, Number 932",0.53
same,Fold change (week 11/week 0) in relative species abundance,"fecal microbiota [2]; Symbol BACT_397, Number 914",0.45
same,Fold change (week 11/week 0) in relative species abundance,"fecal microbiota [2]; Symbol BACT_409, Number 845",9.91
same,Fold change (week 11/week 0) in relative species abundance,"fecal microbiota [2]; Symbol BACT_413, Number 847",1.25
same,Fold change (week 11/week 0) in relative species abundance,"fecal microbiota [2]; Symbol BACT_418, Number 749",0.22
same,Fold change (week 11/week 0) in relative species abundance,"fecal microbiota [2]; Symbol BACT_419, Number 920",0.15
same,Fold change (week 11/week 0) in relative species abundance,"fecal microbiota [2]; Symbol BACT_420, Number 922",0.33
same,Fold change (week 11/week 0) in relative species abundance,"fecal microbiota [2]; Symbol BACT_424, Number 906",0.29
same,Fold change (week 11/week 0) in relative species abundance,"fecal microbiota [2]; Symbol BACT_449, Number 772",2.90
same,Fold change (week 11/week 0) in relative species abundance,"fecal microbiota [2]; Symbol BACT_463, Number 719",0.00
same,Fold change (week 11/week 0) in relative species abundance,"fecal microbiota [2]; Symbol BACT_496, Number 765",2.97
same,Fold change (week 11/week 0) in relative species abundance,"fecal microbiota [2]; Symbol BACT_499, Number 35",0.24
same,Fold change (week 11/week 0) in relative species abundance,"fecal microbiota [2]; Symbol BACT_511, Number 591",3.71
same,Fold change (week 11/week 0) in relative species abundance,"fecal microbiota [2]; Symbol BACT_535, Number 940",0.14
same,Fold change (week 11/week 0) in relative species abundance,"fecal microbiota [2]; Symbol BACT_539, Number 117",0.22
same,Fold change (week 11/week 0) in relative species abundance,"fecal microbiota [2]; Symbol BACT_551, Number 907",0.62
same,Fold change (week 11/week 0) in relative species abundance,"fecal microbiota [2]; Symbol BACT_572, Number 963",0.70
same,Fold change (week 11/week 0) in relative species abundance,"fecal microbiota [2]; Symbol BACT_586, Number 849",0.70
same,Fold change (week 11/week 0) in relative species abundance,"fecal microbiota [2]; Symbol BACT_627, Number 886",0.16
same,Fold change (week 11/week 0) in relative species abundance,"fecal microbiota [2]; Symbol BACT_632, Number 871",3.17
same,Fold change (week 11/week 0) in relative species abundance,"fecal microbiota [2]; Symbol BACT_681, Number 125",0.00
same,Fold change (week 11/week 0) in relative species abundance,"fecal microbiota [2]; Symbol BACT_686, Number 1007",0.00
same,Fold change (week 11/week 0) in relative species abundance,"fecal microbiota [2]; Symbol BACT_722, Number 377",1.88
same,Fold change (week 11/week 0) in relative species abundance,"fecal microbiota [2]; Symbol BACT_769, Number 610",3.38
same,Fold change (week 11/week 0) in relative species abundance,"fecal microbiota [2]; Symbol BACT_843, Number 1318",0.16
same,Fold change (week 11/week 0) in relative species abundance,"fecal microbiota [2]; Symbol BACT_850, Number 394",2.51
same,Fold change (week 11/week 0) in relative species abundance,"fecal microbiota [2]; Symbol BACT_852, Number 766",0.77
same,Fold change (week 11/week 0) in relative species abundance,"fecal microbiota [2]; Symbol BACT_855, Number 835",0.34
same,Fold change (week 11/week 0) in relative species abundance,"fecal microbiota [2]; Symbol BACT_890, Number 163",0.15
same,Fold change (week 11/week 0) in relative species abundance,"fecal microbiota [2]; Symbol BACT_913, Number 904",1.10
same,Fold change (week 11/week 0) in relative species abundance,"fecal microbiota [2]; Symbol BACT_915, Number 1315",10.39
same,Fold change (week 11/week 0) in relative species abundance,"fecal microbiota [2]; Symbol BACT_931, Number 1088",0.53
same,Fold change (week 11/week 0) in relative species abundance,"fecal microbiota [2]; Symbol BACT_1001, Number 933",0.75
same,Fold change (week 11/week 0) in relative species abundance,"fecal microbiota [2]; Symbol BACT_1025, Number 751",0.53
same,Fold change (week 11/week 0) in relative species abundance,"fecal microbiota [2]; Symbol BACT_1043, Number 948",1.08
same,Fold change (week 11/week 0) in relative species abundance,"fecal microbiota [2]; Symbol BACT_1083, Number 1008",0.00
same,Fold change (week 11/week 0) in relative species abundance,"fecal microbiota [2]; Symbol BACT_1131, Number 942",0.34
same,Fold change (week 11/week 0) in relative species abundance,"fecal microbiota [2]; Symbol BACT_1311, Number 1259",0.34
same,Fold change (week 11/week 0) in relative species abundance,"fecal microbiota [2]; Symbol BACT_1314, Number 1399",0.67
same,Fold change (week 11/week 0) in relative species abundance,"fecal microbiota [2]; Symbol BACT_1315, Number 1395",0.46
same,Fold change (week 11/week 0) in relative species abundance,"fecal microbiota [2]; Symbol BACT_1321, Number 1255",3.20
same,Fold change (week 11/week 0) in relative species abundance,"fecal microbiota [2]; Symbol BACT_1322, Number 1396",0.91
same,Fold change (week 11/week 0) in relative species abundance,"fecal microbiota [2]; Symbol BACT_1324, Number 1264",12.01
same,Fold change (week 11/week 0) in relative species abundance,"fecal microbiota [2]; Symbol BACT_1348, Number 1311",9.24
same,Fold change (week 11/week 0) in relative species abundance,"fecal microbiota [2]; Symbol BACT_1378, Number 1375",141.18
same,Fold change (week 11/week 0) in relative species abundance,"fecal microbiota [2]; Symbol BACT_1427, Number 1266",0.00
same,Fold change (week 11/week 0) in relative species abundance,"fecal microbiota [2]; Symbol BACT_1442, Number 1400",2.16
same,Fold change (week 11/week 0) in relative species abundance,"fecal microbiota [2]; Symbol BACT_1457, Number 1337",0.23
same,Fold change (week 11/week 0) in relative species abundance,"fecal microbiota [2]; Symbol BACT_1496, Number 1321",2.65
same,Fold change (week 11/week 0) in relative species abundance,"fecal microbiota [2]; Symbol BACT_1501, Number 1331",0.17
same,Fold change (week 11/week 0) in relative species abundance,"fecal microbiota [2]; Symbol BACT_1526, Number 1227",0.07
same,Fold change (week 11/week 0) in relative species abundance,"fecal microbiota [2]; Symbol BACT_1555, Number 1469",0.21
same,Fold change (week 11/week 0) in relative species abundance,"fecal microbiota [2]; Symbol BACT_1569, Number 1462",0.30
same,Fold change (week 11/week 0) in relative species abundance,"fecal microbiota [2]; Symbol BACT_1595, Number 1533",0.00
same,Fold change (week 11/week 0) in relative species abundance,"fecal microbiota [2]; Symbol BACT_1596, Number 1502",0.12
same,Fold change (week 11/week 0) in relative species abundance,"fecal microbiota [2]; Symbol BACT_1656, Number 1503",0.12
same,Fold change (week 11/week 0) in relative species abundance,"fecal microbiota [2]; Symbol BACT_3004, Number 5797",11.92
same,Fold change (week 11/week 0) in relative species abundance,"fecal microbiota [2]; Symbol BACT_3005, Number 5799",1.01
same,Fold change (week 11/week 0) in relative species abundance,"fecal microbiota [2]; Symbol BACT_3007, Number 5798",1.89
same,Fold change (week 11/week 0) in relative species abundance,"fecal microbiota [2]; Symbol BACT_3024, Number 5841",0.02
same,Fold change (week 11/week 0) in relative species abundance,"fecal microbiota [2]; Symbol BACT_3045, Number 5818",0.01
same,Fold change (week 11/week 0) in relative species abundance,"fecal microbiota [2]; Symbol BACT_3056, Number 5836",0.00
same,Fold change (week 11/week 0) in relative species abundance,"fecal microbiota [2]; Symbol BACT_3058, Number 5816",0.11
same,Fold change (week 11/week 0) in relative species abundance,"fecal microbiota [2]; Symbol BACT_3060, Number 5821",0.00
same,Fold change (week 11/week 0) in relative species abundance,"fecal microbiota [2]; Symbol BACT_3062, Number 5800",0.99
same,Fold change (week 11/week 0) in relative species abundance,"fecal microbiota [2]; Symbol BACT_3085, Number 5842",0.03
same,Fold change (week 11/week 0) in relative species abundance,"fecal microbiota [2]; Symbol BACT_3092, Number 5793",2.71
same,Fold change (week 11/week 0) in relative species abundance,"fecal microbiota [2]; Symbol BACT_4040, Number 5769",1.16
same,Fold change (week 11/week 0) in relative species abundance,"fecal microbiota [2]; Symbol BACT_4042, Number 5770",0.04
same,Fold change (week 11/week 0) in relative species abundance,"fecal microbiota [2]; Symbol EUKY_22, Number 1758",0.45
same,Fold change (week 11/week 0) in relative species abundance,"fecal microbiota [2]; Symbol EUKY_141, Number 1875",0.53
same,Fold change (week 11/week 0) in relative species abundance,"fecal microbiota [2]; Symbol EUKY_222, Number 1954",0.49
same,Fold change (week 11/week 0) in relative species abundance,"fecal microbiota [2]; Symbol V1RL3522, Number 3522",0.02
